Values of other authors, collected in patent publication US6686348B2, “Metalloprotease inhibitors” (Les Laboratoires Servier, priority 2000, dated 2004).

System: ovarian cancers
Details: Becket et al., DDT 1996

## CNC(=O)[C@H](Cc1ccccc1)NC(=O)[C@H](CC(C)C)[C@H](CSc1cccs1)C(=O)NO [BB94]
  anti-tumour activity in clinical use: active against ovarian cancers
